# Results reported in patent US20230159509A1 (Amathus Therapeutics, Inc., priority 2020, published 2023).
# Target: T1, nanoLuc TRAP1 in SHSY5Y cells (Homo sapiens, UniProt Q12931)
# T1 construct: expressed in transfected cells; host or cells: SHSY5Y cells, transient transfection with FuGENE HD
# T1 sequence (Q12931 60-704): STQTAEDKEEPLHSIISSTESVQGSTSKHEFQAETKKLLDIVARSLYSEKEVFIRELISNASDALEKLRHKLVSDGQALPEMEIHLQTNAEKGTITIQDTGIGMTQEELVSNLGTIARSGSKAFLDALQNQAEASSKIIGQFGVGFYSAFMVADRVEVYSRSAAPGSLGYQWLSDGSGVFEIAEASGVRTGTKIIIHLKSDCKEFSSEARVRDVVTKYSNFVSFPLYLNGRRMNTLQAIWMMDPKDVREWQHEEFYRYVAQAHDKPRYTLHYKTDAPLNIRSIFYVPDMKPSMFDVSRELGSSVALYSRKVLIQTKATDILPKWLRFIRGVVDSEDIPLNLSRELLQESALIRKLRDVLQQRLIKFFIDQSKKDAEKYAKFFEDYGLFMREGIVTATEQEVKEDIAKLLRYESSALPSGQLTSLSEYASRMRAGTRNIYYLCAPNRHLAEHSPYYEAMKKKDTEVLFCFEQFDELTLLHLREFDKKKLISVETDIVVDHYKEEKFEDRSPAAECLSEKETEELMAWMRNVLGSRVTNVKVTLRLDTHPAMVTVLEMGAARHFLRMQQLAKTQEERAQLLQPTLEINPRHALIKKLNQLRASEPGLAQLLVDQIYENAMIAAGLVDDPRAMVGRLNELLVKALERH
# Test: NanoBRET in-cell target engagement assay
# Type: cell-based
# Description: In-cell target engagement assays were performed as described in Robers M. B. et al. (2019) Quantitative, Real-Time Measurements of Intracellular Target Engagement Using Energy Transfer. In: Ziegler S., Waldmann H. (eds) Systems Chemical Biology. Methods in Molecular Biology, vol 1888. Humana Press, New York, N.Y.; Machleidt et al., ACS Chem. Biol. 2015, 10, 8, 1797-1804; or Vasta et al., Cell Chemical Biology 25, 206-214, Feb. 15, 2018; or as described herein.
# Below is a protocol for transient transfection of SHSY5Y cells with NanoLuc® fusions. • 1. Cultivate SHSY5Y cells appropriately prior to assay in MEM w NEAA supplemented with 10% FBS. • 2. Remove medium from cell flask via aspiration, trypsinize, and allow cells to dissociate from the flask. • 3. Neutralize trypsin using growth medium and pellet cells via centrifugation at 200 g for 5 minutes. • 4. Aspirate medium and re-suspend cells into a single cell suspension using complete cell culture medium. • 5. Adjust the cell density to 300K/mL in cell culture medium in a sterile, conical tube. • 6. Prepare lipid:DNA complexes as follows (this covers two assay plates, adjust numbers for more plates) • a. Prepare a 10 μg/mL solution of DNA in Opti-MEM without serum. This solution should contain the following ratios of carrier DNA and DNA encoding NanoLuc® fusion. • i. 5.0 μg/mL of Transfection Carrier DNA (pGEM) • ii. […]
compound,measurement,setting,value
COc1ncc(NC(=O)c2csc(-c3ccccc3)n2)cc1S(=O)(=O)Nc1c(C)cccc1C [compound 1178],displacement of fluorescent nanoBRET tracer (probe-385) from nanoLuc TRAP1,"SHSY5Y cells, tracer titration, compound 20 PM, FIG. 13",displacement of the tracer
same,"displacement of nanoBRET tracer (probe-385) from nanoLuc TRAP1, concentration response","live SHSY5Y cells, tracer 1 μM, FIG. 14",displacing the nanoBRET tracer molecule
